Source: patent publication US20230285570A1, “THERAPEUTICALLY USEFUL CURE-PRO MOLECULES FOR E3 LIGASE MEDIATED DEGRADATION OF PROTEINS, AND METHODS OF MAKING AND USING THEM” (CORNELL UNIVERSITY, priority 2020, published 2023)
“Also recorded” adds a separate entry of the source. One block for each molecule: values may come before it.

Key:
c-MYC [1] = target: T1, c-MYC (Homo sapiens, UniProt P01106); assay: Summary of C-MYC degradation by CURE-PRO pairs, estimated from Western Blot or WES; type: cell-based; parameters: endogenous in cells; host or cells: HT29; conditions: for Degradation of C-MYC, combination with MDM2 ligand 8310: Table 11, aromatic 1,2-diol MYC ligand + 8310; for Degradation of C-MYC, combination with MDM2 ligand 8312: Table 11, aromatic 1,2-diol MYC ligand + 8312; for Degradation of C-MYC, combination with CRBN ligand 8046: Table 7, aryl-boronic acid MYC ligand + 8046; for Degradation of C-MYC, combination with CRBN ligand 8047: Table 7, aryl-boronic acid MYC ligand + 8047; for Degradation of C-MYC, combination with CRBN ligand 8048: Table 10, aromatic 1,2-diol MYC ligand + 8048; for Degradation of C-MYC, combination with CRBN ligand 8049: Table 10, aromatic 1,2-diol MYC ligand + 8049; for Degradation of C-MYC, combination with VHL ligand 8297: Table 12, aromatic 1,2-diol MYC ligand + 8297; for Degradation of C-MYC, combination with VHL ligand 8298: Table 12, aromatic 1,2-diol MYC ligand + 8298
T1 sequence (P01106 whole entry): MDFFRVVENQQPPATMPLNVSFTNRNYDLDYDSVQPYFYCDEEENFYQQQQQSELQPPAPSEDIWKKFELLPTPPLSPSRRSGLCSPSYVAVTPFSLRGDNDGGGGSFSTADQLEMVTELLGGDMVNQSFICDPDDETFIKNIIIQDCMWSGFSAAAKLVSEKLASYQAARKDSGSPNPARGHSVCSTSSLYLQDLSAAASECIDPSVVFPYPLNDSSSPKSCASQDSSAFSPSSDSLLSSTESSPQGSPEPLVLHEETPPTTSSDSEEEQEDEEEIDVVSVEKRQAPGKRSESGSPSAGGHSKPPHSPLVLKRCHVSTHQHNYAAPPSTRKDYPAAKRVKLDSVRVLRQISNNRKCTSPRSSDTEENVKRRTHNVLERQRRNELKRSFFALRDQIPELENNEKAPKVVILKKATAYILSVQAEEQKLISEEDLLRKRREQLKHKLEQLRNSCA
Experimental: (§1) Namalwa, Ramosm HeLa, MCF7, or HT29 HCT116 cells (2.5-3×10^6) were treated for 24 hours with the indicated compounds solubilized in DMSO. The cells were washed in ice-cold PBS and were then lysed in RIPA lysis buffer (150 mM NaCl, 5 mM EDTA, 1% NP-40, 0.5% sodium deoxycholate, 0.1% SDS, 50 mM Tris, pH 8.0.) with Roche protease inhibitor complete cocktail and phosphatase inhibitors (10 mM sodium fluoride, 10 mM sodium pyrophosphate, 1 mM sodium orthovanadate and 20 mM β-glycerophosphate). The total protein concentrations were determined by Bradford Protein Assay (Pierce) and 10-20 μg of protein was loaded onto 4-15% Tris-Glycine gradient gels (Biorad). After standard gel electrophoresis, the separated proteins were transferred to PVDF membrane by wet transfer. The immunoblots were then blocked for 1 hour in 5% skim milk in TBST or 5% BSA in TBST, according to manufacturer's instructions, before an overnight incubation at 4° C. with indicated antibodies and membranes. Membranes were then incubated with the appropriate horseradish peroxidase-conjugated secondary antibodies (1:5,000 dilution) for 1 h at room temperature and the bands were visualized using the Clarity Max Western ECL Substrate (Biorad) and the ChemiDoc Imaging System (Biorad). Signal was detected with ECL Western Blotting Substrate (Pierce) and X-ray film processed with a Konica SRX-101 X-ray film processor or captured by Bio-Rad's Chemidoc Imaging system.
WES Simple analysis was performed on WES system (ProteinSimple-Biotechne) according to the manufacturer's instructions. Total protein concentrations of cell lysates were determined by the Pierce BCA kit (Thermo Fisher). 3 μL of 0.3 μg/μL of the protein lysate was loaded onto a 12- to 230-kDa WES assay plate (ProteinSimple) where 300 nL sample was withdrawn through a capillary, subjected to electrophoretic separation of proteins by size, and followed by the simultaneous, HRP-based detection of proteins using the Anti-Rabbit Detection Module (Proteinsimple: #DM-001). The electropherograms were checked then the automatic peak detection was manually corrected if it was required.
A black check mark indicates efficacy of 30% to 70% or higher protein degradation.

c-MYC [2] = target: T1, c-MYC; assay: CURE-PRO-mediated c-MYC degradation in HT29 cells, Western blot; type: cell-based; parameters: endogenous in cells; host or cells: HT29
Experimental: as §1
HT29 cells (2.5×10^6) were treated for 24 h with the compounds solubilized in DMSO. Compounds were added at 10 nM-10 μM each, as indicated in the description of the figures. Standardized protein samples were electrophoresed and imaged as described in the immunoblotting section above. c-MYC monomers (10058-F4 derivatives comprising catechol linkers), and CRBN ligands, 8048 and 8049 (pomalidomide derivatives comprising boronic acid linkers) combined in a 1:1 ratio.
HT29 cells (2.5×10^6) were treated for 24 h with the compounds solubilized in DMSO. Compounds were added at 100 nM-10 μM each.
(§2) HT29 cells (2.5×10^6) were treated for 24 h with the compounds solubilized in DMSO. Compounds were added at 100 nM-10 μM each. Standardized protein samples were electrophoresed and imaged as described in the immunoblotting section above. c-MYC monomer, MYC-E1, (a 10058-F4 derivative comprising boronic acid linkers), and CRBN ligands, 8046, 8047 and 8066 (pomalidomide derivatives comprising diol linkers) combined in a 1:1 ratio.
as §2, with “monomers, MYC-E6 (FIG. 90), MYC-E10 (FIG. 91), and MYC-E16 (FIG. 92) (10074-G5 derivatives” for “monomer, MYC-E1, (a 10058-F4 derivative”
(§3) HT29 cells (2.5×10^6) were treated for 24 h with the compounds solubilized in DMSO. Compounds were added at 10 nM-10 μM each. Standardized protein samples were electrophoresed and imaged as described in the immunoblotting section above. c-MYC monomer, MYC-N16 (FIG. 93) (10074-G5 derivatives comprising diol linkers), and VHL ligands, 8297 and 8298 (VH-298 derivatives comprising boronic acid linkers) were combined in a 1:1 ratio.
as §3, with “monomers, MYC-E7” for “monomer, MYC-N16”, “96), MYC-E10 (FIG. 97), and MYC-E17 (FIG. 98),” for “93)”, “boronic acid” for “diol”, “diol” for “boronic acid”

[3] = 1:1 with CRBN ligand 8046, HT29, 24 h, 100 nM-10 μM each
[4] = 1:1 with CRBN ligand 8047, HT29, 24 h, 100 nM-10 μM each
[5] = 1:1 with CRBN ligand 8066, HT29, 24 h, 100 nM-10 μM each
[6] = 1:1 with VHL ligand 8298, HT29, 24 h, 10 nM-10 μM each
[7] = 1:1 with CRBN ligand 8048, HT29, 24 h, 10 nM-10 μM each
[8] = c-MYC monomer alone, HT29, 24 h, 10 nM-10 μM

Structure (SMILES): O=C(NCc1cccc(O)c1O)c1ccc(Nc2ccc([N+](=O)[O-])c3nonc23)cc1 [MYC- N18]
- Degradation of C-MYC, combination with MDM2 ligand 8310 (c-MYC [1]): √ (A black check mark indicates efficacy of 30% to 70% or higher protein degradation)

Structure (SMILES): O=C(NCCNC(=O)c1ccccc1Nc1ccc([N+](=O)[O-])c2nonc12)c1ccc(O)c(O)c1 [MYC- N21]
- Degradation of C-MYC, combination with MDM2 ligand 8310 (c-MYC [1]): √ (A black check mark indicates efficacy of 30% to 70% or higher protein degradation)

Structure (SMILES): O=C(NCCNC(=O)c1cccc(O)c1O)c1ccccc1Nc1ccc([N+](=O)[O-])c2nonc12 [MYC- N22]
- Degradation of C-MYC, combination with MDM2 ligand 8310 (c-MYC [1]): √ (A black check mark indicates efficacy of 30% to 70% or higher protein degradation)
- Degradation of C-MYC, combination with MDM2 ligand 8312 (c-MYC [1]): √ (A black check mark indicates efficacy of 30% to 70% or higher protein degradation)

- c-MYC degradation (c-MYC [2]; [5]): no degradation was observed
Structure (SMILES): CCc1ccc(/C=C2\SC(=O)N(Cc3cccc(B(O)O)c3)C2=O)cc1 [MYC-E1]
- c-MYC degradation (c-MYC [2]; [3]): Some degradation is seen; also recorded: causes degradation of c-MYC
- c-MYC degradation (c-MYC [2]; [4]): Some degradation is seen; also recorded: no degradation was observed
- Degradation of C-MYC, combination with CRBN ligand 8046 (c-MYC [1]): √ (A black check mark indicates efficacy of 30% to 70% or higher protein degradation)
- Degradation of C-MYC, combination with CRBN ligand 8066 (c-MYC [1]; Table 7, aryl-boronic acid MYC ligand + 8066): √ (A black check mark indicates efficacy of 30% to 70% or higher protein degradation)

- c-MYC degradation (c-MYC [2]; [3]): no degradation was observed
- c-MYC degradation (c-MYC [2]; [4]): caused degradation of c-MYC
- c-MYC degradation (c-MYC [2]; [5]): no degradation was observed
Structure (SMILES): O=[N+]([O-])c1ccc(Nc2ccccc2-c2ccc(B(O)O)cc2)c2nonc12 [MYC-E6]
- Degradation of C-MYC, combination with CRBN ligand 8046 (c-MYC [1]): √ (A black check mark indicates efficacy of 30% to 70% or higher protein degradation)
- Degradation of C-MYC, combination with CRBN ligand 8047 (c-MYC [1]): √ (A black check mark indicates efficacy of 30% to 70% or higher protein degradation)

- c-MYC degradation (c-MYC [2]; [3]): caused c-MYC degradation
- c-MYC degradation (c-MYC [2]; [6]): caused degradation of c-MYC
- c-MYC degradation (c-MYC [2]; 1:1 with VHL ligand 8305, HT29, 24 h, 10 nM-10 μM each): caused loss of c-MYC protein
Structure (SMILES): O=C(NCc1cccc(B(O)O)c1)c1ccc(Nc2ccc([N+](=O)[O-])c3nonc23)cc1 [MYC-E10]
- Degradation of C-MYC, combination with CRBN ligand 8046 (c-MYC [1]): √ (A black check mark indicates efficacy of 30% to 70% or higher protein degradation)

Structure (SMILES): Cc1ccc(CNC(=O)c2ccccc2Nc2ccc([N+](=O)[O-])c3nonc23)cc1B(O)O [MYC-E16]
- c-MYC degradation (c-MYC [2]; [4]): Some degradation is seen; also recorded: caused c-MYC degradation
- Degradation of C-MYC, combination with CRBN ligand 8047 (c-MYC [1]): √ (A black check mark indicates efficacy of 30% to 70% or higher protein degradation)

Structure (SMILES): O=C(NCc1ccc(Cl)c(B(O)O)c1)c1ccccc1Nc1ccc([N+](=O)[O-])c2nonc12 [MYC-E18]
- Degradation of C-MYC, combination with CRBN ligand 8046 (c-MYC [1]): √ (A black check mark indicates efficacy of 30% to 70% or higher protein degradation)

- c-MYC degradation (c-MYC [2]; [7]): caused c-MYC degradation
- c-MYC degradation (c-MYC [2]; [8]): there is no degradation of c-MYC
Structure (SMILES): CCc1ccc(/C=C2\SC(=O)N(CCc3cccc(O)c3O)C2=O)cc1 [MYC-N4]
- Degradation of C-MYC, combination with CRBN ligand 8048 (c-MYC [1]): √ (A black check mark indicates efficacy of 30% to 70% or higher protein degradation)

- c-MYC degradation (c-MYC [2]; [8]): there is no degradation of c-MYC
Structure (SMILES): CCc1ccc(/C=C2\SC(=O)N(CCNC(=O)c3ccc(O)c(O)c3)C2=O)cc1 [MYC-N7]
- c-MYC degradation (c-MYC [2]; [7]): cause c-MYC protein degradation; also recorded: caused degradation of c-MYC
- c-MYC degradation (c-MYC [2]; 1:1 with CRBN ligand 8049, HT29, 24 h, 10 nM-10 μM each): cause c-MYC protein degradation; also recorded: caused degradation of c-MYC
- Degradation of C-MYC, combination with CRBN ligand 8049 (c-MYC [1]): √ (A black check mark indicates efficacy of 30% to 70% or higher protein degradation)

Structure (SMILES): CCc1ccc(/C=C2\SC(=O)N(CCNC(=O)c3cccc(O)c3O)C2=O)cc1 [MYC-N08]
- Degradation of C-MYC, combination with VHL ligand 8297 (c-MYC [1]): √ (A black check mark indicates efficacy of 30% to 70% or higher protein degradation)
- Degradation of C-MYC, combination with VHL ligand 8298 (c-MYC [1]): √ (A black check mark indicates efficacy of 30% to 70% or higher protein degradation)

Structure (SMILES): O=[N+]([O-])c1ccc(Nc2cccc(O)c2O)c2nonc12 [MYC-N11]
- Degradation of C-MYC, combination with CRBN ligand 8048 (c-MYC [1]): √ (A black check mark indicates efficacy of 30% to 70% or higher protein degradation)

Structure (SMILES): O=C(NCc1ccc(O)c(O)c1)c1ccccc1Nc1ccc([N+](=O)[O-])c2nonc12 [MYC-N15]
- Degradation of C-MYC, combination with CRBN ligand 8048 (c-MYC [1]): √ (A black check mark indicates efficacy of 30% to 70% or higher protein degradation)
- Degradation of C-MYC, combination with CRBN ligand 8049 (c-MYC [1]): √ (A black check mark indicates efficacy of 30% to 70% or higher protein degradation)

- c-MYC degradation (c-MYC [2]; [7]): caused c-MYC degradation
- c-MYC degradation (c-MYC [2]; 1:1 with VHL ligand 8297, HT29, 24 h, 10 nM-10 μM each): caused degradation of c-MYC
- c-MYC degradation (c-MYC [2]; [6]): caused degradation of c-MYC
Structure (SMILES): O=C(NCc1cccc(O)c1O)c1ccccc1Nc1ccc([N+](=O)[O-])c2nonc12 [MYC-N16]
- c-MYC degradation (c-MYC [2]; [8]): there is no degradation of c-MYC; also recorded: no loss of c-MYC protein was observed
- Degradation of C-MYC, combination with CRBN ligand 8048 (c-MYC [1]): √ (A black check mark indicates efficacy of 30% to 70% or higher protein degradation)
- Degradation of C-MYC, combination with MDM2 ligand 8312 (c-MYC [1]): √ (A black check mark indicates efficacy of 30% to 70% or higher protein degradation)
- Degradation of C-MYC, combination with VHL ligand 8297 (c-MYC [1]): √ (A black check mark indicates efficacy of 30% to 70% or higher protein degradation)
- Degradation of C-MYC, combination with VHL ligand 8298 (c-MYC [1]): √ (A black check mark indicates efficacy of 30% to 70% or higher protein degradation)

Structure (SMILES): O=C(NCc1ccc(O)c(O)c1)c1ccc(Nc2ccc([N+](=O)[O-])c3nonc23)cc1 [MYC-N17]
- Degradation of C-MYC, combination with VHL ligand 8298 (c-MYC [1]): √ (A black check mark indicates efficacy of 30% to 70% or higher protein degradation)

Structure (SMILES): O=C(NCCN1C(=O)C/C(=C\c2ccc(F)cc2)C1=O)[C@H]1C[C@@H]2C[C@H]1[C@@H](O)[C@H]2O [MYC-N30]
- Degradation of C-MYC, combination with CRBN ligand 8048 (c-MYC [1]): √ (A black check mark indicates efficacy of 30% to 70% or higher protein degradation)
- Degradation of C-MYC, combination with CRBN ligand 8049 (c-MYC [1]): √ (A black check mark indicates efficacy of 30% to 70% or higher protein degradation)
